# From patent US9307765B2, “Selective weed control using D-napropamide” (UPL Limited, priority 2013, dated 2016)
# “And” between values parts separate entries of the source, which are not always exact repeats. Identical values can stand only once.
# Assays:
# Format in all cases: in vivo
# Ranunculus repens = test: Field trial on strawberries, pre-emergence, visual % control
# Description: (§1) Field trials were conducted on various moncotyledonous weeds and dicotyledonous weeds and the effect of D-isomer of Napropamide was studied to understand the selective and effective control of dicotyledonous weeds over monocotyledonous weeds. The effect of D-isomer of Napropamide in comparison to racemic napropramide and untreated was studied, which is concluded hereinbelow:
# (§2) Several small plot replicated trials were carried out to evaluate and/or compare the efficacy of D-Napropamide against a range of indicated annual broadleaved and grass weed species in the indicated crops. No problems were encountered during mixing or application of any of the product formulations or tank mixtures under test.
# (§3) In each of the reported data, the homogeneity of variance was tested by Bartlett's test. Wherever this test indicated no homogeneity of variance, the transformed values were used for analysis of variance. Assessment data was then analyzed using a two-way analysis of variance (ANOVA) on untransformed and transformed data. The probability of no significant differences occurring between treatment means was calculated as the F probability value (p(F)). A mean comparison test was only performed and reported when the treatment of F that was calculated during analysis of variance was significant at the observed significance level specified for the mean comparison test. Where the data was transformed, treatment means in the reports were presented in their detransformed state, with the appropriate letter test and mean descriptions (LSD and standard deviation) derived from the transformed ANOVA.
# Trial was carried out on strawberries to evaluate the efficacy and selectivity of D-Napropamide and equivalent rate of Devrinol (Napropramide) applied pre-emergence. […] The percentage control of D-isomer of Napropamide and Devrinol was assessed in comparison to the untreated after 224 days after application.
# Papaver rhoeas = test: as above
# Description: as §1, §2, §3
# (§4) Trial was carried out on strawberries to evaluate the efficacy and selectivity of D-Napropamide and equivalent rate of Devrinol (Napropramide) applied pre-emergence. […]
# Senecio vulgaris [1] = test: as above
# Description: as §1, §2, §3, §4
# Matricaria sp. = test: Field trial in winter oilseed rape, pre-emergence, % control and ground cover; settings: 450 g/L @ 2.8 L/Ha
# Description: as §1, §2, §3
# (§5) Trials were conducted to evaluate the selectivity and efficacy of D-isomer of Napropamide when applied pre-emergence to oilseed rape crop. The % control of weed was assessed at regular intervals.
# Stellaria media = test: Pre-emergence glasshouse pot study, seedling emergence and growth (OECD guideline); settings: for EC50 based on the final fresh weights: Stellaria media (dicot), 21 day assessment, probit; for Mean Final Foliar Fresh Weights Expressed as Percentage of Untreated Controls / Mean Final Foliar Fresh Weights: Stellaria media; for Mean Final Foliar Fresh Weights: 21 days after 50% emergence, untreated 1.44
# Description: (§6) A study was carried out to determine the relative biological activity of the D and L isomers of Napropamide when applied pre-emergence to one monocotyledon and one dicotyledon species. Napropamide, containing 450 grammes active substance per liter (g a.s./L) formulated as a suspension concentrate and the D-isomer of Napropamide (1000 g a.s./L) were applied at a range of concentrations from 0.1575 to 1.26 kilograms of active substance per hectare (kg a.s/Ha).
# (§7) EC50 values in kg a.s./Ha were calculated from the dose response data using final foliar fresh weight data for each species and was used to determine the relative biological activity of the D and L isomers of Napropamide. The methodology was based on the OECD guideline […], according to the revision of July 2006 for seedling emergence and growth. The study was conducted to GLP standards.
# (§8) Seeds were sown directly into non-porous plastic pots containing the following mix of soil: 10 L of sterile loam+4 L of coarse grit (washed quartztite, nominal 4 mm)+10 L of sand. This soil mix was characterized as a sandy loam with an organic carbon content of 1.5% and pH of 7.2. Details of the plant species, number of seeds per pot and pot size are shown below. All seeds were sown 1-2 cm deep.
# (§9) The highest concentration of Napropamide was prepared by measuring a calculated volume by weight and diluting with tap water to the full required volume. Lower concentrations were prepared by serial dilution with water. D-Napropamide was prepared by dissolving the calculated weight in acetone and adding water to give the full required volume in 50:50 acetone+water. Lower concentrations were prepared by serial dilution with 50:50 acetone+water. D-Napropamide dissolved completely.
# (§10) The sprayer was calibrated within 24 hours prior to application by weight of 15 applications of water to six 86 mm ID petri dishes. The total weight of water over a known area enabled a simple calculation giving the volume rate to be made. The volume rate achieved was within the range specified in the study plan (200 L/Ha±10%).
# (§11) Replication was 5 pots per treatment for each plant species. After application, pots were placed on the bench in glasshouse in randomized blocks. Plants were assessed for emergence, mortality and visual injury (expressed as a percentage of the untreated control: 0%=no injury, 1-39%=slight injury, 40-69%=moderate injury, 70-99%=severe injury and 100%=all plants dead) at 14 and 21 days after 50% emergence in the untreated controls. Fresh weights (biomass above soil level) were also recorded 21 days after 50% emergence in the untreated controls. Plants were fully turgid at the time of harvest.
# (§12) Assessment data was recorded on pro-forma sheets and entered into Gylling ARM 7 software. EC50 values were calculated using audited means data from the final assessments (21 day). Gylling ARM 7.0 software used a simple probit—maximum likelihood estimation method with 99% confidence level. The EC50 values generated were then visually checked against the means data table to verify they appeared correct.
# Poa annua = test: as above; settings: for Mean Final Foliar Fresh Weights Expressed as Percentage of Untreated Controls / Mean Final Foliar Fresh Weights: Poa annua; for Mean Final Foliar Fresh Weights: 21 days after 50% emergence, untreated 0.90
# Description: as §6, §7, §8, §9, §10, §11, §12
# Veronica persica = test: Field trial in winter oilseed rape, pre-emergence, % control
# Description: as §1, §2, §3, §5
# Cirsium arvense = test: as above
# Description: as §1, §2, §3, §5
# Senecio vulgaris [2] = test: as above
# Description: as §1, §2, §3, §5
# Aperaspica-venti = test: as above
# Description: as §1, §2, §3, §5
# Fallopia convolvulus = test: as above
# Description: as §1, §2, §3, §5
# Digitaria sanguinalis = test: Plot trial, % control of Digitaria sanguinalis; settings: 9 L/Ha of 450 g/L formulation
# Description: as §1, §2
# as §3, with “ANOVA. […]” for “ANOVA.”
structure (smiles),measurement,setting,value
"CCN(CC)C(=O)C(C)Oc1cccc2ccccc12 (racemic) [Napropamide, N,N-diethyl-2-(α-naphthoxy)propionamide]",Percentage Control at 224 DAA,Ranunculus repens; 5 L/Ha of 450 g/L formulation,33.3%
same,Percentage Control at 224 DAA,Ranunculus repens; 7 L/Ha of 450 g/L formulation,66.7%
same,Percentage Control at 224 DAA,Ranunculus repens; 14 L/Ha of 450 g/L formulation,83.3%
same,Percentage Control at 70 DAA,Papaver rhoeas; 5 L/Ha of 450 g/L formulation,62.5%
same,Percentage Control at 70 DAA,Papaver rhoeas; 7 L/Ha of 450 g/L formulation,81.7%
same,Percentage Control at 70 DAA,Papaver rhoeas; 14 L/Ha of 450 g/L formulation,82.5%
same,Percentage Control at 70 DAA,Senecio vulgaris [1]; 5 L/Ha of 450 g/L formulation,37.5%
same,Percentage Control at 70 DAA,Senecio vulgaris [1]; 7 L/Ha of 450 g/L formulation,25.0%
same,Percentage Control at 70 DAA,Senecio vulgaris [1]; 14 L/Ha of 450 g/L formulation,12.5%
same,"Percentage ground cover %, value in brackets (untreated 0.0%)",Matricaria sp.,(52.8%)
same,Percentage Control at 49 DAA,Matricaria sp.; oilseed rape,61.25%
same,Percentage ground cover %,Matricaria sp.; untreated 4.50,2.13%
same,EC50 based on the final fresh weights,Stellaria media,0.22 kg/Ha
same,Mean Final Foliar Fresh Weights Expressed as Percentage of Untreated Controls,Stellaria media; rate 0.1575 kg/Ha,70%
same,Mean Final Foliar Fresh Weights,Stellaria media; rate 0.315 kg/Ha pre-emergence,0.3 g
same,Mean Final Foliar Fresh Weights,Stellaria media; rate 0.63 kg/Ha pre-emergence,0.328 g
same,Mean Final Foliar Fresh Weights Expressed as Percentage of Untreated Controls,Stellaria media; rate 1.26 kg/Ha,16%
same,EC50 based on the final fresh weights,"Poa annua; Poa annua (monocot), 21 day assessment, probit",0.72 kg/Ha
same,Mean Final Foliar Fresh Weights Expressed as Percentage of Untreated Controls,Poa annua; rate 0.1575 kg/Ha,100%
same,Mean Final Foliar Fresh Weights,Poa annua; rate 0.315 kg/Ha pre-emergence,0.57 g
same,Mean Final Foliar Fresh Weights,Poa annua; rate 0.63 kg/Ha pre-emergence,0.98 g
same,Mean Final Foliar Fresh Weights Expressed as Percentage of Untreated Controls,Poa annua; rate 1.26 kg/Ha,23%
same,Percentage Control at 63 DAA,Veronica persica; 450 g/L @ 1.6 L/Ha,75.00%
same,Percentage Control at 63 DAA,Veronica persica; 450 g/L @ 2.8 L/Ha,75.00%
same,Mean Percentage Control,Cirsium arvense; 450 g/L @ 2.8 L/Ha,20.00%
same,Conclusion: control of the weed at equivalent dosage,"Cirsium arvense; Cirsium arvense, dicot",negligible control
same,Percentage Control at 63 DAA,Senecio vulgaris [2]; 450 g/L @ 1.6 L/Ha,36.96%
same,Percentage Control at 63 DAA,Senecio vulgaris [2]; 450 g/L @ 2.8 L/Ha,4.65%
same,Percentage Control at 63 DAA,Aperaspica-venti; 450 g/L @ 1.6 L/Ha,40.00%
same,Percentage Control at 63 DAA,Aperaspica-venti; 450 g/L @ 2.8 L/Ha,76.25% and 67.50%
same,Percentage Control at 63 DAA,Fallopia convolvulus; 450 g/L @ 1.6 L/Ha,30.00%
same,Percentage Control at 63 DAA,Fallopia convolvulus; 450 g/L @ 2.8 L/Ha,0.00%
same,% Control,Digitaria sanguinalis; 16 DAA,12.50%
same,% Control,Digitaria sanguinalis; 33 DAA,15.00%
"CCN(CC)C(=O)[C@H](C)Oc1cccc2ccccc12 [L-Napropamide, reference compound]",EC50 based on the final fresh weights,Stellaria media,1.26 kg/Ha
